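Briefly, cells in 96-well plates were exposed to five compound concentrations for 48 h, and endpoints were estimated by linear interpolation. Definition used: TGI = concentration required for complete inhibition of growth.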
Tests used:
Assay in all cases: NCI-60 cell line screen, 48 h
SF-539 CNS = test system: SF-539 CNS
SK-MEL-2 melanoma = test system: SK-MEL-2 melanoma
SK-MEL-28 melanoma = test system: SK-MEL-28 melanoma
SNB-75 CNS = test system: SNB-75 CNS
MALME-3M melanoma = test system: MALME-3M melanoma
HOP-62 NSCLC = test system: HOP-62 NSCLC
PC-3 prostate = test system: PC-3 prostate
SR leukemia = test system: SR leukemia
TK-10 renal = test system: TK-10 renal
DU-145 prostate = test system: DU-145 prostate

SMILES | TGI (SF-539 CNS) [µM] | TGI (SK-MEL-2 melanoma) [µM] | TGI (SK-MEL-28 melanoma) [µM] | TGI (SNB-75 CNS) [µM] | TGI (MALME-3M melanoma) [µM] | TGI (HOP-62 NSCLC) [µM] | TGI (PC-3 prostate) [µM] | TGI (SR leukemia) [µM] | TGI (TK-10 renal) [µM] | TGI (DU-145 prostate) [µM]
COC1/C=C\C=C(/C)C(=O)NC2=CC(=O)C=C(C2=O)C(OC)C(C)CC(OC)C(OC)C(C)/C=C(/C)C1OC(N)=O (stereo unspecified) | 20.4 | 20.5 | 19.8 | 31.6 | 0.826 | 8.05 | – | – | – | –
CSCCC(NC(=O)C(Cc1ccccc1)NC(=O)CNC(=O)CNC(=O)C(N)Cc1ccc(O)cc1)C(=O)O (stereo unspecified) | > 100 | > 100 | > 100 | > 100 | > 100 | > 100 | – | – | – | –
C=CCn1c2ccccc2c2c(C)c3cnccc3c(C)c21 | 44.5 | > 71 | > 125 | 57.4 | 62 | 36.3 | – | – | – | –
O=C(Nc1ccc(Cl)cc1)c1cc(S(=O)(=O)Nc2n[nH]c(=O)[nH]2)c(SSc2cc(Cl)c(C(=O)Nc3ccc(Cl)cc3)cc2S(=O)(=O)Nc2n[nH]c(=O)[nH]2)cc1Cl | – | > 100 | > 100 | > 100 | > 100 | > 100 | > 100 | > 100 | > 100 | –
O=C(N/N=C(/COc1cccc(Cl)c1)N=Cc1ccncc1)c1ccncc1 | > 100 | > 100 | > 100 | – | > 100 | > 100 | > 100 | – | > 100 | > 100
CC(=O)OC1C=CC2CCN3C(=O)c4cc5c(cc4[C@H]1C23)OCO5 (stereo partly specified) | > 100 | – | > 100 | > 100 | > 100 | > 100 | – | > 100 | > 100 | –
COc1cc(/C=C2\C(=O)N(c3cccc(Cl)c3)C(c3ccccc3)S2(=O)=O)cc(OC)c1OC (stereo unspecified) | > 100 | > 100 | > 100 | – | > 100 | > 100 | – | – | > 100 | > 100
NS(=O)(=O)c1nnc(NC(=O)CCC(=O)O)s1 | > 100 | > 100 | > 100 | – | > 100 | > 100 | – | > 100 | > 100 | > 100
COC1/C=C/C(C)C(OC)CC(O)/C=C/C(C)C(C(C)C(OC)C(C)CCC(=O)C(C)C(C/C=C/N(C)C=O)OC)OC(=O)/C=C/C=C(\C)CC(OC)C(OC)C2=CC(=O)O[C@@H](C(C)C(OC)C1)[C@H]2O (stereo partly specified) | – | – | 0.121 | 0.0859 | 0.115 | 0.0673 | 0.0862 | > 25 | 0.124 | –
NCCCNCCSSCc1ccccc1CSSCCNCCCN | > 100 | > 100 | > 100 | 70 | > 100 | > 100 | – | – | > 100 | –
Clc1cc2nc(C3CCCO3)[nH]c2cc1Cl (stereo unspecified) | > 100 | > 100 | > 100 | > 100 | > 100 | > 100 | > 100 | > 100 | > 100 | –
Cc1cccc2c1Oc1cc(Cl)ccc1C2NC(=O)CCN1CCCCC1 (stereo unspecified) | 31.9 | – | 29.2 | 28.1 | – | 28.3 | 30.5 | 35 | 30 | –
CN1CCc2c(sc3nc(Nc4ccccc4)n(N)c(=O)c23)C1 | > 100 | > 100 | – | – | – | > 100 | > 100 | – | > 100 | > 100
CN(C)C(=S)Nc1nnc(NC23CC4CC(CC(C4)C2)C3)s1 | – | 44.7 | 31.3 | – | 53.3 | 33.9 | – | 57.9 | > 100 | –
CN(C)c1cccc(-c2cc(=O)c3ccccc3[nH]2)c1 | > 100 | – | > 100 | – | > 100 | > 100 | – | > 100 | > 100 | –
Cc1ccc2nc3c(C(=O)NCCN(C)C)cccc3cc2c1 | 10.1 | 5.3 | 6.67 | 8.26 | 4.58 | 7.05 | – | – | – | –
NNC(N)=Nc1cccc2ccccc12 | > 100 | – | > 100 | > 100 | > 100 | > 100 | – | > 100 | > 100 | > 100
CC(/C=C/c1ncccc1OCCCCCC(=O)O)=N\NC1=NCCN1 | > 100 | > 100 | > 100 | – | > 100 | > 100 | – | > 100 | > 100 | –
C#CCNC(=O)CCC(N)C(=O)O (stereo unspecified) | > 100 | > 100 | > 100 | > 100 | > 100 | > 100 | – | – | – | –
O=C(NC(=O)c1cn(CCN2CCNCC2)c(=O)[nH]c1=O)OCc1ccccc1 | > 100 | – | – | > 100 | > 100 | > 100 | – | > 100 | – | –
CC(=O)OCC1C(C(C)OC(C)=O)CCC2C1CCC1(C)C(OC(C)=O)CCC21 (stereo unspecified) | 32.6 | – | 29.1 | – | 37 | 38.5 | – | > 100 | > 100 | > 100
COc1ccc2c(=O)c([Se]c3coc4cc(OC)ccc4c3=O)coc2c1 | > 100 | > 100 | > 100 | 87.5 | > 100 | > 100 | – | > 100 | > 100 | –

Reference: PubChem BioAssay (NCI)
